Values quoted from earlier work in paper PMC11876601 (Molecular Systems Biology, 2025).
Where two headings read alike, the source gives them in different places.

Legend:
Details in all cases: cited from earlier work
TNK2 = tested on: TNK2
PLK4 = tested on: PLK4
AURKA = biological target: AURKA
Q6ZSR9 = tested on: Q6ZSR9
IRAK4 = tested on: IRAK4
MAP4K1 = tested on: MAP4K1
MAPK10 = tested on: MAPK10
AURKB = biological target: AURKB
[1] = TNK2, 5 cell line mix lysate, Kinobeads ε, ref Reinecke et al. (2023)
[2] = PLK4, 5 cell line mix lysate, Kinobeads ε, ref Reinecke et al. (2023)
[3] = 5 cell line mix lysate, Kinobeads ε, ref Reinecke et al. (2023), read-out: KDapp
[4] = 5 cell line mix lysate, Kinobeads ε, ref Reinecke et al. (2023)
[5] = Q6ZSR9, 5 cell line mix lysate, Kinobeads ε, ref Reinecke et al. (2023)
[6] = IRAK4, 5 cell line mix lysate, Kinobeads ε, ref Reinecke et al. (2023)
[7] = MAP4K1, 5 cell line mix lysate, Kinobeads ε, ref Reinecke et al. (2023)
[8] = MAPK10, 5 cell line mix lysate, Kinobeads ε, ref Reinecke et al. (2023)
[9] = 4 cell line mix lysate, Kinobeads y, ref Klaeger et al. (2017)

For `COc1cc(N2CCC(N3CCN(C)CC3)CC2)ccc1Nc1ncc(Cl)c(Nc2ccccc2P(C)(C)=O)n1` [Brigatinib], the EC50 (TNK2; [1]) is given as 5.93 nM, the pKDapp (TNK2; [1]) is given as 8.57 and the Kd (TNK2; TNK2, 5 cell line mix lysate, Kinobeads ε, ref Reinecke et al. (2023), read-out: KDapp) is given as 2.67 nM. For the same compound, the EC50 (PLK4; [2]) was 95.2 nM, the pKDapp (PLK4; [2]) was 7.31 and the Kd (PLK4; PLK4, 5 cell line mix lysate, Kinobeads ε, ref Reinecke et al. (2023), read-out: KDapp) was 48.5 nM. The Kd (AURKA; [3]) was 224 nM, the EC50 (AURKA; [4]) was 634 nM and the pKDapp (AURKA; [4]) was 6.65. For the same compound, the EC50 (Q6ZSR9; [5]) was 296 nM, the pKDapp (Q6ZSR9; [5]) was 6.65 and the Kd (Q6ZSR9; Q6ZSR9, 5 cell line mix lysate, Kinobeads ε, ref Reinecke et al. (2023), read-out: KDapp) was 225 nM. The EC50 (IRAK4; [6]) was 492 nM, the pKDapp (IRAK4; [6]) was 6.42 and the Kd (IRAK4; IRAK4, 5 cell line mix lysate, Kinobeads ε, ref Reinecke et al. (2023), read-out: KDapp) was 381 nM. For the same compound, the EC50 (MAP4K1; [7]) was 716 nM, the pKDapp (MAP4K1; [7]) was 6.28 and the Kd (MAP4K1; MAP4K1, 5 cell line mix lysate, Kinobeads ε, ref Reinecke et al. (2023), read-out: KDapp) was 520 nM. For the same compound, the EC50 (MAPK10; [8]) was 789 nM, the pKDapp (MAPK10; [8]) was 6.18 and the Kd (MAPK10; MAPK10, 5 cell line mix lysate, Kinobeads ε, ref Reinecke et al. (2023), read-out: KDapp) was 663 nM. For the same compound, the Kd (AURKB; [3]) was 1080 nM, the EC50 (AURKB; [4]) was 1850 nM and the pKDapp (AURKB; [4]) was 5.97.
In the case of `C[C@]12O[C@H](C[C@]1(O)CO)n1c3ccccc3c3c4c(c5c6ccccc6n2c5c31)CNC4=O` [Lestaurtinib], the EC50 (TNK2; TNK2, 4 cell line mix lysate, Kinobeads y, ref Klaeger et al. (2017)) is given as […], the EC50 (PLK4; PLK4, 4 cell line mix lysate, Kinobeads y, ref Klaeger et al. (2017)) is given as […] and the EC50 (AURKA; [9]) is given as […]. The EC50 (Q6ZSR9; Q6ZSR9, 4 cell line mix lysate, Kinobeads y, ref Klaeger et al. (2017)) was 105 nM, the EC50 (IRAK4; IRAK4, 4 cell line mix lysate, Kinobeads y, ref Klaeger et al. (2017)) was […] and the EC50 (MAP4K1; MAP4K1, 4 cell line mix lysate, Kinobeads y, ref Klaeger et al. (2017)) was 347 nM. For the same compound, the EC50 (MAPK10; MAPK10, 4 cell line mix lysate, Kinobeads y, ref Klaeger et al. (2017)) was 33.2 nM and the EC50 (AURKB; [9]) was […].
